Data taken from patent publication US7217722B2 (Kirin Beer Kabushiki Kaisha, priority 2000, dated 2007).

Key:
[1] = system: spontaneously hypertensive male rats (SHR); assay: Antihypertensive activity in spontaneously hypertensive rats; type: in vivo; settings: Rattus norvegicus, po, 30 mg/kg oral, systolic pressure 6 to 7 hr after administration (data with *), mean ± SEM of 3 to 4 SHRs, read-out: Blood pressure depression, %
Protocol: This test was carried out as follows. A test compound was dissolved in purified water, or alternatively the test compound was suspended in a 5% aqueous sodium carboxymethylcellulose solution. The solution or the suspension was forcibly administered into the gaster of SHR through an oral probe. The systolic pressure of SHR was measured with a bloodless sphygmometer (BP-98A, Softron Co.) immediately before the administration of the test compound and 3 to 4 hr after the administration of the test compound or 6 to 7 hr after the administration of the test compound. The percentage of blood pressure depression was calculated by the following equation: Antihypertensive activity (%)={(blood pressure before administration of test compound−blood pressure after administration of test compound)/blood pressure before administration of test compound}×100
Each compound was administered at 30 mg/kg, and the antihypertensive activity (%) was expressed in terms of the mean value of 3 to 4 SHRs and SEM (standard error of the mean).
For data with *, the blood pressure was measured 6 to 7 hr after the administration of the test compound, and, for data with no marks, the blood pressure was measured 3 to 4 hr after the administration of the test compound.

[2] = system: Human-derived histiocyte lymphoma (U937/CCR2); assay: Leukocyte migration inhibitory activity (MCP-1 induced migration, CHEMOTAXICELL); type: cell-based; settings: Homo sapiens, U-937, 1 h, test compound 0.3 μM; U937/CCR2, MCP-1, 1 hr; read-out: Migration inhibition (%) ± SEM
Protocol: Human-derived histiocyte lymphoma (U937/CCR2), in which mouse-derived CCR2 had been highly expressed, was suspended in a 0.1% BSA-containing RPMI 1640 medium, to which a test compound had been added (5×10^6/ml), and the suspension was incubated for 20 min. A chemical solution (500 μl) (0.1% BSA-containing RPMI 1640 medium DMSO 1%), to which an MCP-1 ligand (1 μM) and the test compound had been added, was added to a 24-well plate. CHEMOTAXICELL was put thereon, and 200 μl of the cell suspension was added to the top layer, followed by migration under 5% carbon dioxide at 37° C. for one hr. The number of cells, which had migrated to the lower chamber, was counted with a particle count analyzer (CDA-500, SYSMEX CORPORATION), and the percentage migration inhibition was calculated by the following equation; Migration inhibition (%)={1−(number of migrated cells in the presence of test compound/number of migrated cells in the absence of test compound)}×100

[3] = system: anti-GBM nephritis model S.D. rats; assay: Albuminuria amelioration activity for anti-GBM nephritis model using S.D. rats; type: in vivo, rat; settings: oral 30 mg/kg twice daily, urine 0-24 hr after antibody, control group 794.2 ± 113.2
Protocol: Anti-GBM antibody produced by immunizing domestic rabbits with a rat-derived GBM fraction was caudointravenously administered to S.D. male rats of 8 weeks old to induce nephritis. Immediately after the administration of the antibody and six hr after the administration of the antibody, the compound of Example 300 was orally administered at 30 mg/kg. Urine was collected in a period between immediately after the administration of the antibody and 24 hr after the administration of the antibody, and the protein level of urine was measured to observe albuminuria amelioration activity.

[4] = system: anti-GBM nephritis model WKY rats; assay: Albuminuria amelioration activity for anti-GBM nephritis model using WKY rats; type: in vivo, rat; settings: oral 30 mg/kg twice daily for two weeks, 24 hr urine, control group 840.4 ± 82.2
Protocol: Anti-GBM antibody produced by immunizing domestic rabbits with a rat-derived GBM fraction was caudointravenously administered to WKY male rats of 9 weeks old to induce nephritis. […] During 24 hr from two weeks after the administration of the antibody, urine was collected, and the protein level of urine was measured to observe albuminuria amelioration activity.

In the case of `Fc1ccc(CN2CCCC(Nc3ccc4[nH]ncc4c3)C2)cc1F` (stereo not shown) [Example 300, N-[1-(3,4-difluorobenzyl)-3-piperidyl)-N-(1H-5-indazolyl)amine], the inhibition in vivo at 30 mg/kg [1] is reported as 24.1 ± 3.8%, the inhibition at 0.3 µM [2] is reported as 81.9 ± 11.9% and the “Protein level of urine (mg/kg/day) ± SEM” value [3] is reported as 437.1 ± 95.9 mg/kg/day. For the same compound, the “Protein level of urine (mg/kg/day) SEM” value [4] was 602.2 ± 47.3 mg/kg/day.
